Starred links: 1 amine or outer side, 2 acyl side, 3 side chain; linkers in the order of their positions; H or OH if unused. Positions of bridges follow the written chain, without caps; N, C: chain ends. Non-standard residues stand in square brackets, D forms with d. Residues, ends and D or L forms follow the SMILES beside them. Groups on a side chain read outwards from the residue. *: point of attachment. X51 = C[N+](C)(C)CCCc1cn(-c2ccc(C[C@H](N[*:1])C(=O)[*:2])cc2)nn1; Me3N+(CH2)2O(CH2)2O(CH2)2CO = C[N+](C)(C)CCOCCOCCC(=O)*; PEG12 = NCCOCCOCCOCCOCCOCCOCCOCCOCCOCCOCCOCCOCCC(=O)O; CH2CH2OCH2CH2OCH2CH2NMe3+ = C[N+](C)(C)CCOCCOCC*; Trp(7-Me) = Cc1cccc2c(C[C@H](N)C(=O)O)c[nH]c12; d(hLys(Me3)) = C[N+](C)(C)CCCCC[C@@H](N)C(=O)O; X20 = C[N+](C)(C)CC[C@H](N[*:1])C(=O)[*:2]; γGlu = O=C(O)[C@H](CCC(=O)[*:2])N[*:1]; 2Nal = N[C@@H](Cc1ccc2ccccc2c1)C(=O)O; AEF = NCCOc1ccc(C[C@H](N)C(=O)O)cc1; X75 = C[N+](C)(C)CCOCC[N+](C)(C)CC*; X45 = COCC[N+](C)(C)CCc1cn(CC*)nn1; 3Pal = N[C@@H](Cc1cccnc1)C(=O)O; Myristoyl = CCCCCCCCCCCCCC(=O)*; Lys(Me) = CNCCCC[C@H](N)C(=O)O; NMeK = CN[C@@H](CCCCN)C(=O)O; Pen = CC(C)(S)[C@H](N)C(=O)O; Lauroyl = CCCCCCCCCCCC(=O)*; X84 = CN(CCC[N+](C)(C)C)CC*; Thp = NC1(C(=O)O)CCOCC1; X17 = C[N+]1(CC*)CCOCC1; Dap = NC[C@H](N)C(=O)O; X3 = C[N+](C)(C)CCCCC*; AEEA = NCCOCCOCC(=O)O; Me2NCH2CH2 = CN(C)CC*; Sar = CNCC(=O)O

The nature of the data set: Exposed Polar Surface Area (EPSA). The data set is classed as physicochemical. As to conditions: SFC on Chirex 3014 column; sample 1 mM DMSO stock; read-out: EPSA. The procedure, abridged: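 Retention-based polarity: supercritical CO2 with 20 mM ammonium formate in MeOH (5–60%, 20%/min), Chirex 3014 column, 35 °C. Calibrated against 8 standards to give EPSA (Å^2); each sample measured twice.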
Turning to `CCCCCCCCCCCC(=O)N[C@@H](CCC(=O)NCCOCCOCC(=O)NCCOCCOCC(=O)NCCCC[C@@H](NC(=O)CCOCCOCC[N+](C)(C)C)C(=O)N[C@@H]1C(=O)N[C@@H](CC(=O)N(C)C)C(=O)N[C@@H]([C@@H](C)O)C(=O)N[C@@H](Cc2c[nH]c3c(C)cccc23)C(=O)N[C@@H](CCCCNC(C)=O)C(=O)N[C@H](C(=O)N[C@@H](Cc2ccc(OCCCCC[N+](C)(C)C)cc2)C(=O)N[C@@H](Cc2ccc3ccccc3c2)C(=O)NC2(C(=O)N[C@@H](CCCCN(C)C(C)=O)C(=O)N[C@@H](CC(N)=O)C(=O)N[C@@H](Cc3cccnc3)C(=O)N(C)[C@@H](CCCCNC(=O)COCCOCCNC(=O)COCCOCCNC(=O)CC[C@H](NC(=O)CCCCCCCCCCC)C(=O)O)C(N)=O)CCOCC2)C(C)(C)SSC1(C)C)C(=O)O` [compound 348, cPEG3aCO-k(PEG2PEG2gEC12)-Pen(3)-N(N(Me)2)-T-7MeW-K(Ac)-Pen(3)-TMAPF-2Nal-THP-K(NMeac)-N-3Pya-NMeK(PEG2PEG2gEC12)-CONH2] ({Me3N+(CH2)2O(CH2)2O(CH2)2CO}-[dK]([AEEA-AEEA-γGlu-Lauroyl])[Pen]D(NMe2)T[Trp(7-Me)]K(Ac)[Pen]Y(X3)[2Nal][Thp][Lys(Me)](Ac)N[3Pal][NMeK]([AEEA-AEEA-γGlu-Lauroyl])-NH2; disulfide 2-7), the EPSA is 184 A^2.

As for `CC(=O)NCCCC[C@@H]1NC(=O)[C@H](Cc2c[nH]c3c(C)cccc23)NC(=O)[C@H]([C@@H](C)O)NC(=O)[C@H](CC(N)=O)NC(=O)[C@@H](NC(C)=O)C(C)(C)SSC(C)(C)[C@@H](C(=O)N[C@@H](Cc2ccc(-n3cc(CCC[N+](C)(C)C)nn3)cc2)C(=O)N[C@@H](Cc2ccc3ccccc3c2)C(=O)NC2(C(=O)N[C@@H](CCCCNC(C)=O)C(=O)N[C@@H](CC(N)=O)C(=O)N[C@@H](Cc3cccnc3)C(=O)N(C)CC(N)=O)CCOCC2)NC1=O` [compound 423] (Ac-[Pen]NT[Trp(7-Me)]K(Ac)[Pen][X51][2Nal][Thp]K(Ac)N[3Pal][Sar]-NH2; disulfide 1-6), the EPSA was 161 A^2.

With `CC(=O)NCCCC[C@@H]1NC(=O)[C@H](Cc2c[nH]c3c(C)cccc23)NC(=O)[C@H]([C@@H](C)O)NC(=O)[C@H](CC(N)=O)NC(=O)[C@@H](NC(=O)[C@@H](CCCCNC(=O)CCOCCOCCOCCOCCOCCOCCOCCOCCOCCOCCOCCOCCNC(C)=O)NC(C)=O)C(C)(C)SSC(C)(C)[C@@H](C(=O)N[C@@H](Cc2ccc(OCCN)cc2)C(=O)N[C@@H](Cc2ccc3ccccc3c2)C(=O)NC2(C(=O)N[C@@H](CCCCNC(C)=O)C(=O)N[C@@H](CC(N)=O)C(=O)N[C@@H](Cc3cccnc3)C(=O)N(C)CC(N)=O)CCOCC2)NC1=O` [compound 40] (Ac-[dK]([PEG12-Ac])[Pen]NT[Trp(7-Me)]K(Ac)[Pen][AEF][2Nal][Thp]K(Ac)N[3Pal][Sar]-NH2; disulfide 2-7), the EPSA turned out to be 156 A^2.

As to `CC(=O)NCCCC[C@@H]1NC(=O)[C@H](Cc2c[nH]c3c(C)cccc23)NC(=O)[C@H]([C@@H](C)O)NC(=O)[C@H](CC(N)=O)NC(=O)[C@@H](NC(=O)[C@@H](CCCNC(=N)N)NC(=O)CCOCCOCCOCCOCCOCCOCCOCCOCCOCCOCCOCCOCCNC(C)=O)C(C)(C)SSC(C)(C)[C@@H](C(=O)N[C@@H](Cc2ccc(OCCN)cc2)C(=O)N[C@@H](Cc2ccc3ccccc3c2)C(=O)NC2(C(=O)N[C@@H](CCC(=O)O)C(=O)N[C@@H](CC(N)=O)C(=O)N[C@@H](Cc3cccnc3)C(=O)N(C)CC(N)=O)CCOCC2)NC1=O` [compound 38] (Ac-[PEG12][dR][Pen]NT[Trp(7-Me)]K(Ac)[Pen][AEF][2Nal][Thp]EN[3Pal][Sar]-NH2; disulfide 3-8), the EPSA came to 172 A^2.

As to `CC(=O)N[C@@H]1C(=O)N[C@@H](CC[N+](C)(C)C)C(=O)N[C@@H]([C@@H](C)O)C(=O)N[C@@H](Cc2c[nH]c3c(C)cccc23)C(=O)N[C@@H](CCCCN(C)C(C)=O)C(=O)N[C@H](C(=O)N[C@@H](Cc2ccc(OCCOCCOCC[N+](C)(C)C)cc2)C(=O)N[C@@H](Cc2ccc3ccccc3c2)C(=O)NC2(C(=O)N[C@@H](CCCCN(C)C(C)=O)C(=O)N[C@@H](CC(N)=O)C(=O)N[C@@H](Cc3cccnc3)C(=O)N(C)CC(=O)N(C)C)CCOCC2)C(C)(C)SSC1(C)C` [compound 436] (Ac-[Pen][X20]T[Trp(7-Me)][Lys(Me)](Ac)[Pen]Y(CH2CH2OCH2CH2OCH2CH2NMe3+)[2Nal][Thp][Lys(Me)](Ac)N[3Pal][Sar]-NMe2; disulfide 1-6), the EPSA worked out at 149 A^2.

On to `CC(=O)N(C)CCCC[C@@H]1NC(=O)[C@H](Cc2c[nH]c3c(C)cccc23)NC(=O)[C@H]([C@@H](C)O)NC(=O)[C@H](CC(=O)N(C)C)NC(=O)[C@@H](NC(=O)CCOCCOCC[N+](C)(C)C)C(C)(C)SSC(C)(C)[C@@H](C(=O)N[C@@H](Cc2ccc(OCC[N+](C)(C)CCOCC[N+](C)(C)C)cc2)C(=O)N[C@@H](Cc2ccc3ccccc3c2)C(=O)NC2(C(=O)N[C@@H](CCCCN(C)C(C)=O)C(=O)N[C@@H](CC(N)=O)C(=O)N[C@@H](Cc3cccnc3)C(=O)N(C)CC(=O)N(C)C)CCOCC2)NC1=O` [compound 264, cPEG3aCO-Pen(3)-N(N(Me)2)-T-7MeW-K(NMeAc)-Pen(3)-AEF(aPEG2a)-2Nal-THP-K(NMeAc)-N-3Pya-Sar-CON(Me)2] ({Me3N+(CH2)2O(CH2)2O(CH2)2CO}-[Pen]D(NMe2)T[Trp(7-Me)][Lys(Me)](Ac)[Pen]Y(X75)[2Nal][Thp][Lys(Me)](Ac)N[3Pal][Sar]-NMe2; disulfide 1-6), for which the EPSA is 151 A^2.

With `CC(=O)NCCCC[C@@H]1NC(=O)[C@H](Cc2c[nH]c3c(C)cccc23)NC(=O)[C@H]([C@@H](C)O)NC(=O)[C@H](CC(N)=O)NC(=O)[C@@H](NC(C)=O)C(C)(C)SSC(C)(C)[C@@H](C(=O)N[C@@H](Cc2ccc(OCCN(C)C)cc2)C(=O)N[C@@H](Cc2ccc3ccccc3c2)C(=O)NC2(C(=O)N[C@@H](CNC(C)=O)C(=O)N[C@@H](CC(N)=O)C(=O)N[C@@H](Cc3cccnc3)C(=O)N(C)CC(N)=O)CCOCC2)NC1=O` [compound 102] (Ac-[Pen]NT[Trp(7-Me)]K(Ac)[Pen]Y(Me2NCH2CH2)[2Nal][Thp][Dap](Ac)N[3Pal][Sar]-NH2; disulfide 1-6), the EPSA stood at 156 A^2.

Turning to `COCC[N+](C)(C)CCc1cn(CCOc2ccc(C[C@H](NC(=O)[C@H]3NC(=O)[C@H](CCCCNC(C)=O)NC(=O)[C@H](Cc4c[nH]c5c(C)cccc45)NC(=O)[C@H]([C@@H](C)O)NC(=O)[C@H](CC(N)=O)NC(=O)[C@@H](NC(C)=O)C(C)(C)SSC3(C)C)C(=O)N[C@@H](Cc3ccc4ccccc4c3)C(=O)NC3(C(=O)N[C@@H](CCCCNC(C)=O)C(=O)N[C@@H](CC(N)=O)C(=O)N[C@@H](Cc4cccnc4)C(=O)N(C)CC(N)=O)CCOCC3)cc2)nn1` [compound 249] (Ac-[Pen]NT[Trp(7-Me)]K(Ac)[Pen]Y(X45)[2Nal][Thp]K(Ac)N[3Pal][Sar]-NH2; disulfide 1-6 (inferred)), the EPSA came to 147 A^2.

Turning to `CC(=O)N(C)CCCC[C@@H]1NC(=O)[C@H](Cc2c[nH]c3c(C)cccc23)NC(=O)[C@H]([C@@H](C)O)NC(=O)[C@H](CC(=O)N(C)C)NC(=O)[C@@H](NC(=O)CCOCCOCC[N+](C)(C)C)C(C)(C)SSC(C)(C)[C@@H](C(=O)N[C@@H](Cc2ccc(OCCN(C)CCC[N+](C)(C)C)cc2)C(=O)N[C@@H](Cc2ccc3ccccc3c2)C(=O)NC2(C(=O)N[C@@H](CCCCN(C)C(C)=O)C(=O)N[C@@H](CC(N)=O)C(=O)N[C@@H](Cc3cccnc3)C(=O)N(C)CC(=O)N(C)C)CCOCC2)NC1=O` [compound 234, cPEG3aCO-Pen(3)-N(N(Me)2)-T-7MeW-K(NMeAc)-Pen(3)-AEF(MePrpa)-2Nal-THP-K(NMeAc)-N-3Pya-Sar-CON(Me)2] ({Me3N+(CH2)2O(CH2)2O(CH2)2CO}-[Pen]D(NMe2)T[Trp(7-Me)][Lys(Me)](Ac)[Pen]Y(X84)[2Nal][Thp][Lys(Me)](Ac)N[3Pal][Sar]-NMe2; disulfide 1-6), the EPSA worked out at 141 A^2.

Turning to `CCCCCCCCCCCCCC(=O)N[C@@H](CCC(=O)NCCOCCOCC(=O)NCCOCCOCC(=O)NCCCC[C@@H]1NC(=O)[C@@H](NC(=O)[C@@H](CCCCC[N+](C)(C)C)NC(=O)COCCOCCNC(=O)COCCOCCNC(=O)CC[C@H](NC(=O)CCCCCCCCCCCCC)C(=O)O)C(C)(C)SSC(C)(C)[C@@H](C(=O)N[C@@H](Cc2ccc(OCCCCC[N+](C)(C)C)cc2)C(=O)N[C@@H](Cc2ccc3ccccc3c2)C(=O)NC2(C(=O)N[C@@H](CCCCN(C)C(C)=O)C(=O)N[C@@H](CC(N)=O)C(=O)N[C@@H](Cc3cccnc3)C(=O)N(C)CC(=O)N(C)C)CCOCC2)NC(=O)[C@H](CCCCN(C)C(C)=O)NC(=O)[C@H](Cc2c[nH]c3c(C)cccc23)NC(=O)[C@H]([C@@H](C)O)NC1=O)C(=O)O` [compound 374, C14gEPEG2PEG2CO-hk(Me)3-Pen(3)-K(PEG2PEG2gEC14)-T-7MeW-K(NMeAc)-Pen(3)-TMAPF-2Nal-THP-K(NMeAc)-N-3Pya-Sar-CON(Me)2] ({Myristoyl-γGlu-AEEA-AEEA}-[d(hLys(Me3))][Pen]K([AEEA-AEEA-γGlu-Myristoyl])T[Trp(7-Me)][Lys(Me)](Ac)[Pen]Y(X3)[2Nal][Thp][Lys(Me)](Ac)N[3Pal][Sar]-NMe2; disulfide 2-7), the EPSA was found to be 170 A^2.

For `CC(=O)NCCCC[C@@H]1NC(=O)[C@H](Cc2c[nH]c3ccccc23)NC(=O)[C@H]([C@@H](C)O)NC(=O)[C@H](CC(N)=O)NC(=O)[C@@H](NC(=O)[C@@H](CCCNC(=N)N)NC(C)=O)C(C)(C)SSC(C)(C)[C@@H](C(=O)N[C@@H](Cc2ccc(OCC[N+]3(C)CCOCC3)cc2)C(=O)N[C@@H](Cc2ccc3ccccc3c2)C(=O)NC2(C(=O)N[C@@H](CCC(=O)O)C(=O)N[C@@H](CC(N)=O)C(=O)N[C@@H](Cc3cccnc3)C(=O)N(C)CC(N)=O)CCOCC2)NC1=O` [compound 429] (Ac-[dR][Pen]NTWK(Ac)[Pen]Y(X17)[2Nal][Thp]EN[3Pal][Sar]-NH2; disulfide 2-7), the EPSA worked out at 192 A^2.

(Values after patent US20260022143A1, “Cyclic Peptide Inhibitors of IL-23” (JANSSEN PHARMACEUTICA NV, priority 2022, published 2026).)
